Data as given in patent US12077503B2, “Substituted cyclic amides and their use as herbicides” (FMC CORPORATION, priority 2015, dated 2024).

What was measured:
Assay type in all cases: in vivo
[1] = test system: ryegrass, Italian (Italian ryegrass, Lolium multiflorum); assay: Test A preemergence; settings: Lolium multiflorum, pre-emergence, 240 h, Preemergence
Procedure, shortened: (§1)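 Compounds were formulated in a non-phytotoxic solvent mixture with surfactant and applied as a preemergence directed soil spray after seeding, or sprayed postemergence over plants 2 to 10 cm tall at the one- to two-leaf stage. Evaluation after about 10 d compared treated with untreated controls, using a scale from 0 (no effect) to 100 (complete control).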

Kochia (Kochia scoparia) [2] = assay: Test A preemergence; settings: Bassia scoparia, pre-emergence, 240 h, Preemergence
Procedure, shortened: as §1

[3] = test system: pigweed (Amaranthus retroflexus); assay: Test A preemergence; settings: Amaranthus retroflexus, pre-emergence, 240 h, Preemergence
[4] = test system: giant foxtail (Setaria faberii); assay: Test A preemergence; settings: Setaria faberi, pre-emergence, 240 h, Preemergence
Procedure, shortened: as §1

[5] = test system: ragweed (common ragweed, Ambrosia elatior); assay: Test A preemergence; settings: Ambrosia artemisiifolia, pre-emergence, 240 h, Preemergence
Procedure, shortened: as §1

[6] = test system: barnyardgrass (Echinochloa crus-galli); assay: Test A preemergence; settings: Echinochloa crus-galli, pre-emergence, 240 h, Preemergence
Procedure, shortened: as §1

rice (Oryra sativa) = assay: Test B flooded paddy test; settings: Oryza sativa, 250 g ai/ha, Flood; 0 to 100 scale where 0 is no effect and 100 is complete control; read-out: Rice plant response rating
Procedure, shortened: (§2)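 Evaluation by eye, against controls, occurred 13–15 d post-treatment in a greenhouse, using a 0 (no effect) to 100 (complete control) scale. Application was into the paddy water, 3 cm deep over the soil, on 2-leaf plants.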

[7] = test system: barnyardgrass (Echinochloa crus-galli); assay: Test B flooded paddy test; settings: Echinochloa crus-galli, 250 g ai/ha, Flood; 0 to 100 scale where 0 is no effect and 100 is complete control; read-out: Barnyardgrass plant response rating
Procedure, shortened: as §2

[8] = test system: ducksalad (Heteranthera limosa); assay: Test B flooded paddy test; settings: Heteranthera limosa, 250 g ai/ha, Flood; 0 to 100 scale where 0 is no effect and 100 is complete control; read-out: Ducksalad plant response rating
Procedure, shortened: as §2

[9] = test system: sedge, umbrella (small-flower umbrella sedge, Cyperus difformis); assay: Test B flooded paddy test; settings: Cyperus difformis, 250 g ai/ha, Flood; 0 to 100 scale where 0 is no effect and 100 is complete control; read-out: Sedge, Umbrella plant response rating
Procedure, shortened: as §2

[10] = test system: ryegrass, Italian (Italian ryegrass, Lolium multiflorum); assay: Test A postemergence; settings: Lolium multiflorum, post-emergence, 240 h, Postemergence, read-out: Plant response rating, Ryegrass, Italian
Procedure, shortened: as §1

[11] = test system: blackgrass (Alopecurus myosuroides); assay: Test A postemergence; settings: Alopecurus myosuroides, post-emergence, 240 h, Postemergence, read-out: Plant response rating, Blackgrass
Procedure, shortened: as §1

Kochia (Kochia scoparia) [12] = assay: Test A postemergence; settings: Bassia scoparia, post-emergence, 240 h, Postemergence, read-out: Plant response rating, Kochia
Procedure, shortened: as §1

[13] = test system: pigweed (Amaranthus retroflexus); assay: Test A postemergence; settings: Amaranthus retroflexus, post-emergence, 240 h, Postemergence, read-out: Plant response rating, Pigweed
Procedure, shortened: as §1

corn (Zea mays) = assay: Test A postemergence; settings: Zea mays, post-emergence, 240 h, Postemergence
Procedure, shortened: as §1

[14] = test system: giant foxtail (Setaria faberii); assay: Test A postemergence; settings: Setaria faberi, post-emergence, 240 h, Postemergence, read-out: Plant response rating, Foxtail, Giant
Procedure, shortened: as §1

[15] = test system: ragweed (common ragweed, Ambrosia elatior); assay: Test A postemergence; settings: Ambrosia artemisiifolia, post-emergence, 240 h, Postemergence, read-out: Plant response rating, Ragweed
Procedure, shortened: as §1

[16] = test system: barnyardgrass (Echinochloa crus-galli); assay: Test A postemergence; settings: Echinochloa crus-galli, post-emergence, 240 h, Postemergence, read-out: Plant response rating, Barnyardgrass
Procedure, shortened: as §1

[17] = test system: Galium (catchweed bedstraw, Galium aparine); assay: Test A postemergence; settings: Galium, post-emergence, 240 h, Postemergence, read-out: Plant response rating, Galium
Procedure, shortened: as §1

[18] = test system: wheat (Triticum aestivum); assay: Test A postemergence; settings: Triticum aestivum, post-emergence, 240 h, Postemergence, read-out: Plant response rating, Wheat
Procedure, shortened: as §1

[19] = 125 g ai/ha, visual injury after approximately 10 d, 0 to 100 scale where 0 is no effect and 100 is complete control
[20] = 31 g ai/ha, visual injury after approx. 10 d, 0 to 100 scale, 0 no effect, 100 complete control

O=C(Nc1cccc(F)c1F)[C@H]1C(=O)N(O)CC[C@@H]1c1ccccc1 [Compound 1007]
0%: pest or weed control at 31 g/ha ([1]; 31 g ai/ha, 0 to 100 scale where 0 is no effect and 100 is complete control, read-out: Ryegrass, Italian plant response rating) | pest or weed control at 125 g/ha ([1]; 125 g ai/ha, visual injury rating after approximately 10 d, read-out: Ryegrass, Italian plant response rating (0 to 100 scale, 0 is no effect, 100 is complete control)) | pest or weed control at 31 g/ha (Kochia (Kochia scoparia) [2]; 31 g ai/ha, 0 to 100 scale where 0 is no effect and 100 is complete control, read-out: Kochia plant response rating) | pest or weed control at 125 g/ha (Kochia (Kochia scoparia) [2]; 125 g ai/ha, visual injury rating after approximately 10 d, read-out: Kochia plant response rating (0 to 100 scale, 0 is no effect, 100 is complete control)) | pest or weed control at 31 g/ha ([3]; 31 g ai/ha, 0 to 100 scale where 0 is no effect and 100 is complete control, read-out: Pigweed plant response rating) | pest or weed control at 125 g/ha ([3]; 125 g ai/ha, visual injury rating after approximately 10 d, read-out: Pigweed plant response rating (0 to 100 scale, 0 is no effect, 100 is complete control)) | pest or weed control at 125 g/ha ([4]; 125 g ai/ha, visual injury rating after approximately 10 d, read-out: Foxtail, Giant plant response rating (0 to 100 scale, 0 is no effect, 100 is complete control)) | pest or weed control at 31 g/ha ([4]; 31 g ai/ha, 0 to 100 scale (0 no effect, 100 complete control), read-out: Plant response rating, Foxtail, Giant) | pest or weed control at 31 g/ha ([5]; 31 g ai/ha, 0 to 100 scale where 0 is no effect and 100 is complete control, read-out: Ragweed plant response rating) | pest or weed control at 125 g/ha ([5]; 125 g ai/ha, visual injury rating after approximately 10 d, read-out: Ragweed plant response rating (0 to 100 scale, 0 is no effect, 100 is complete control)) | pest or weed control at 125 g/ha ([6]; 125 g ai/ha, visual injury rating after approximately 10 d, read-out: Barnyardgrass plant response rating (0 to 100 scale, 0 is no effect, 100 is complete control)) | pest or weed control at 31 g/ha ([6]; 31 g ai/ha, 0 to 100 scale (0 no effect, 100 complete control), read-out: Plant response rating, Barnyardgrass) | pest or weed control at 250 g/ha (rice (Oryra sativa)) | pest or weed control at 250 g/ha [7] | pest or weed control at 250 g/ha [8] | pest or weed control at 250 g/ha [9] | pest or weed control at 125 g/ha [10, 19] | pest or weed control at 31 g/ha [10, 20] | pest or weed control at 125 g/ha [11, 19] | pest or weed control at 31 g/ha [11, 20] | pest or weed control at 125 g/ha (Kochia (Kochia scoparia) [12]; [19]) | pest or weed control at 31 g/ha (Kochia (Kochia scoparia) [12]; [20]) | pest or weed control at 125 g/ha [13, 19] | pest or weed control at 31 g/ha [13, 20] | Corn plant response rating (crop injury, 0 = no effect, 100 = complete kill) at 125 g/ha (corn (Zea mays); [19]) | Corn plant response rating (crop injury, 0 = no effect, 100 = complete kill) at 31 g/ha (corn (Zea mays); [20]) | pest or weed control at 125 g/ha [14, 19] | pest or weed control at 31 g/ha [14, 20] | pest or weed control at 125 g/ha [15, 19] | pest or weed control at 31 g/ha [15, 20] | pest or weed control at 125 g/ha [16, 19] | pest or weed control at 31 g/ha [16, 20] | pest or weed control at 125 g/ha [17, 19] | pest or weed control at 31 g/ha [17, 20] | plant injury at 125 g/ha [18, 19] | plant injury at 31 g/ha [18, 20]
